Experimental data as given in US12624019B2, “Indazole derivative, and preparation method therefor and use thereof” (Leadingtac Pharmaceutical (Shaoxing) Co., Ltd., priority 2020, dated 2026).

Columns and labels:
[1] = molecular target: T1, IRAK4 kinase protein in THP-1 cells (Homo sapiens, UniProt Q9NWZ3); assay: Degradation of IRAK4 in THP-1 cells by Western Blot; format: cell-based; settings: 24 hours; for DC50 / Dmax: IRAK4 degradation in THP-1 cells; for DC50: read-out: WB DC50; for Dmax: read-out: WB Dmax; for WB D(%) (300 nM) / WB D(%) (1000 nM): degradation percentage of IRAK4 in THP-1 cells; for WB D(%) (300 nM): compound 300 nM; for WB D(%) (1000 nM): compound 1000 nM
T1 construct: endogenous in cells; host or cells: THP-1 cells
T1 sequence (Q9NWZ3 1-460): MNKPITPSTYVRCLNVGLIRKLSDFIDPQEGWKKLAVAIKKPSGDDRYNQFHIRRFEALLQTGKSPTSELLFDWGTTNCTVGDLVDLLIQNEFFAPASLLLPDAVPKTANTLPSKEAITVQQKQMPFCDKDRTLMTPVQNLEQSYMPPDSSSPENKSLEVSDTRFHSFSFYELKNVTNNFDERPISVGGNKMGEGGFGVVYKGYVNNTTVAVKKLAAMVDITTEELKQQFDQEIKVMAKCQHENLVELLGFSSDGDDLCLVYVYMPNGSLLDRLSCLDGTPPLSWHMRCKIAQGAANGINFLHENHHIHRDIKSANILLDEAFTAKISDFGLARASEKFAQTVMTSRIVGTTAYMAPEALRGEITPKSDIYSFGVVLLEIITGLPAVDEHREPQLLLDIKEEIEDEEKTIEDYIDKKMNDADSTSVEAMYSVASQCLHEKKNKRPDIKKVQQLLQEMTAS
Method: Each well of the 24-well cell culture plate was inoculated with 0.95 mL THP-1 cells (stem cell bank of Chinese academy of sciences) with a cell density of 5×10^5 cells/well. The cell plate was placed in a 5% carbon dioxide incubator and cultured overnight at 37° C., then 50 μL compound in dimethyl sulfoxide was added. The final concentration of the compound was in the range of 1-3000 nM. After continuous cultivation for 24 hours, the cells were collected into a 1.5 mL centrifuge tube, centrifuged at 1000 rpm and 4° C. for 5 minutes. Cell precipitation was washed twice with 1×DPBS, resuspended cells were lysed with 200 μL lysate (cell lysate was Western and IP cell lysate (Beyotime), supplemented with 1 mM mixture of phenylmethylsulfonyl fluoride and protease inhibitor (Beyotime)), left on ice for 30 minutes, then centrifuged at 14000 g at 4° C. for 10 minutes, and the supernatant was taken to detect IRAK4 protein level by Western blot.
The total protein concentration in the supernatant of cell lysis was determined by BCA protein quantitative kit (Tiangen). According to the concentration of total protein detected by BCA, the supernatant was adjusted to […] with PBS and 5×SDS-PAGE protein loading buffer (Beyotime), bathed in water at 100° C. for 10 minutes, then placed in ice bath for 5 minutes, centrifuged at 14000 g and 4° C. for 5 minutes, and then collected as WB loading sample. Prefabricated glue (KeyGEN) was used for protein electrophoresis with a loading amount of 10 μL (total protein 2 μg). After Tris-MOPS-SDS electrophoresis solution (Adamas), 120V constant pressure electrophoresis was performed. After electrophoresis, the protein on the adhesive strip was transferred to PVDF membrane with a constant current of […] for 50 minutes. After the membrane was transferred, the membrane was added in 1×QuickBlock blocking buffer (Beyotime) and incubated for 30 minutes at room temperature. After blocking, PVDF membranes were incubated with IRAK4 primary antibody (Abcam) overnight at 4°, the membranes were washed with TBST buffer (2.4 g Tris, 8.8 g NaCl, 1.5 mL Tween 20, pH adjusted to 7.4, constant volume to 1 L) for 30 minutes, incubated with secondary antibody (Abcam) for 2 hours at room temperature, finally incubated with Clarity Western ECL Substrate (BIO-RAD) for 5 minutes for luminescence development, chemiluminescence imaging system (Clinx, chemiScope 6200 Touch) was used for development and protein mapping photography. The protein map was analyzed by Clinx chemiluminescence analysis software for grayscale values. Using the formula: grayscale correction value=(target protein grayscale value/corresponding internal reference grayscale value)×[…], the grayscale correction value of each sample was calculated. The degradation rate was calculated by comparing with the grayscale correction value of the control group. Furthermore, DC50 and Dmax values of the compound were obtained by the nonlinear curve fitting with the logarithmic concentration-inhibition rate by GraphPad Prism 7.

[2] = molecular target: T2, IRAK4 kinase (Homo sapiens, UniProt Q9NWZ3); assay: IRAK4 kinase activity test (KinEASE-STK HTRF kit); format: biochemical; settings: IRAK4 kinase inhibition, 7 μM ATP, 37° C. 120 min
T2 sequence (Q9NWZ3 1-460): T1 sequence (Q9NWZ3 1-460)
Method: KinEASE-STK Si serine/threonine kinase kit (Cisbio) was used to detect the inhibitory effect of the compound on IRAK4 kinase activity. The specific method was: the compound was dissolved in dimethyl sulfoxide, and then it was diluted with the buffer solution of the kit by equal gradient to make the final concentration range of the tested compound in the reaction system 10000 nM-0.038 nM, then 2.5 nM kinase, 1 μM biotinylated polypeptide substrate and 7 μM adenosine triphosphate (ATP) were added in sequence and incubated at 37° C. for 120 min. Subsequently, anti-phosphorylated serine/threonine antibody coupled with europium element compound and modified XL665 streptavidin were added to the reaction system to terminate the reaction. After incubating at room temperature for 1 h, the fluorescence intensity of each well at the emission wavelength of 620 nm and 665 nm and the excitation wavelength of 337 nm was determined in HTRF mode on the microplate reader EnVision (PerkinElmer), the ratio value was calculated using the formula Ratio=(665 nm/620 nm)×10^4. By comparing with the fluorescence intensity ratio of the control group, the inhibition rate of the compound at each concentration was calculated, and then the IC50 value of the compound was obtained by fitting the nonlinear curve with the logarithmic concentration-inhibition rate by GraphPad Prism 7.

[3] = Pharmacokinetic study in mice; format: in vivo, SD mice; settings: for AUC(0-t) / bioavailability / Cmax: male, SD, mouse, plasma; for bioavailability: gavage 100 mg/kg vs intravenous 1 mg/kg
Method: The following experimental scheme was used to study the pharmacokinetic behavior of the compound of the present invention in mice and evaluate its pharmacokinetic characteristics.
Experimental scheme: 3 healthy SD mice, male, weighing […], were given 100 mg/kg compound by gavage with a volume of 10 mL/kg, prepared with […] (w/v). Before the test, they were fasted for 12 hours and freely drank water. Food was uniformly consumed 4 h after administration.
Three healthy SD mice, male, weighing […], were given 1 mg/kg compound intravenously with a volume of 5 mL/kg, prepared with 5% DMSO/15% solutol %80% PBS (w/v). Before the test, they were fasted for 12 hours and freely drank water. Food was uniformly consumed 4 h after administration.
0.1 mL of venous blood was taken through the submaxillary venous plexus of mice at 0.08 h, 0.25 h, 0.5 h, 1 h, 2 h, 4 h, 8 h, 24 h after gavage administration and 0.08 h, 0.25 h, 0.5 h, 1 h, 2 h, 4 h, 8 h, 24 h after intravenous administration, placed in a heparin test tube, centrifuged at 11000 rpm for 5 min, and plasma was separated, the concentration of compounds in plasma was determined by liquid chromatography-tandem mass spectrometry.

[4] = po, gavage administration 100 mg/kg

Row | DC50 [1] | Dmax [1] | WB D(%) (300 nM) [1] | WB D(%) (1000 nM) [1] | IC50 [2] | CL_pred ([3]; intravenous injection 1 mg/kg) | Vss_pred ([3]; intravenous injection 1 mg/kg) | AUC(0-t) ([3]; intravenous injection 1 mg/kg) | bioavailability ([3]; po) | AUC(0-t) [3, 4] | Cmax [3, 4] | Compound
1 | 18.3 nM | 99.8% | 97.4% | 97.9% | 60.9 nM |  |  |  |  |  |  | CC(C)(O)c1cc2nn(C3CCN(CCC4CCC5(CC4)CCN(c4ccc6c(c4)C(=O)N(C4CCC(=O)NC4=O)C6=O)CC5)CC3)cc2cc1NC(=O)c1cccc(C(F)(F)F)n1 (stereo not drawn) [Example 12, N-(2-(1-(2-(3-(2-(2,6-dioxopiperidin-3-yl)-1,3-dioxoisoindolin-5-yl)-3-azaspiro[5.5]undec-9-yl)ethyl)piperidin-4-yl)-6-(2-hydroxyprop-2-yl)-2H-indazol-5-yl)-6-(trifluoromethyl) pyridinecarboxamide]
2 | 12.5 nM | 79.1% | 81.1% | 74.4% | 32.7 nM |  |  |  |  |  |  | CC(C)(O)c1cc2nn(C3CCN(CC(C)(C)N4CCN(c5ccc6c(c5)C(=O)N(C5CCC(=O)NC5=O)C6=O)CC4)CC3)cc2cc1NC(=O)c1cccc(C(F)(F)F)n1 (stereo not drawn) [Example 9]
3 | 10.6 nM | 80.2% | 82.9% | 79.6% | 48 nM | 5 mL/min/kg | 2.2 L/kg | 3110 ng·h/mL | 13.4% | 41600 ng·h/mL | 3260 ng/mL | CC(C)(O)c1cc2nn(C3CCN(CC4CCN(c5ccc6c(c5)C(=O)N(C5CCC(=O)NC5=O)C6=O)CC4)CC3)cc2cc1NC(=O)c1cccc(C(F)(F)F)n1 (stereo not drawn) [Example 7, N-(2-(1-((1-(2-(2,6-dioxopiperidin-3-yl)-1,3-dioxoisoindolin-5-yl)piperidin-4-yl)methyl)piperidin-4-yl)-6-(2-hydroxyprop-2-yl)-2H-indazol-5-yl)-6-(trifluoromethyl) pyridinecarboxamide]
4 | 15.7 nM | 90.5% | 90.5% | 86.5% | 92.7 nM | 8.3 mL/min/kg | 3.3 L/kg | 1920 ng·h/mL | 22.3% | 22400 ng·h/mL | 1230 ng/mL | COc1cc2nn(C3CCN(CC4CCN(c5ccc6c(c5)C(=O)N(C5CCC(=O)NC5=O)C6=O)CC4)CC3)cc2cc1NC(=O)c1cccc(C(F)(F)F)n1 (stereo not drawn) [Example 2, N-(2-(1-((1-(2-(2,6-dioxopiperidin-3-yl)-1,3-dioxoisoindolin-5-yl)piperidin-4-yl)methyl)piperidin-4-yl)-6-methoxy-2H-indazol-5-yl)-6-(trifluoromethyl) pyridinecarboxamide]
5 | 9.3 nM | 97.7% | 96.7% | 96.4% | 56.7 nM |  |  |  |  |  |  | COc1cc2nn(C3CCN(CCN4CCN(c5ccc6c(c5)C(=O)N(C5CCC(=O)NC5=O)C6=O)CC4)CC3)cc2cc1NC(=O)c1cccc(C(F)(F)F)n1 (stereo not drawn) [Example 3, N-(2-(1-(2-(4-(2-(2,6-dioxopiperidin-3-yl)-1,3-dioxoisoindolin-5-yl)piperazin-1-yl)ethyl)piperidin-4-yl)-6-methoxy-2H-indazol-5-yl)-6-(trifluoromethyl) pyridinecarboxamide]
6 | 25.1 nM | 98.8% | 99.4% | 99.8% | 48.6 nM |  |  |  |  |  |  | COc1cc2nn(C3CCN(CCC4CCN(c5ccc6c(c5)C(=O)N(C5CCC(=O)NC5=O)C6=O)CC4)CC3)cc2cc1NC(=O)c1cccc(C(F)(F)F)n1 (stereo not drawn) [Example 1, N-(2-(1-(2-(1-(2-(2,6-dioxopiperidin-3-yl)-1,3-dioxoisoindolin-5-yl)piperidin-4-yl)ethyl)piperidin-4-yl)-6-methoxy-2H-indazol-5-yl)-6-(trifluoromethyl) pyridinecarboxamide]
7 |  | 73.9% | 73.9% | 65.1% |  |  |  |  |  |  |  | COc1cc2nn(C3CCN(CCOCCOc4ccc5c(c4)C(=O)N(C4CCC(=O)NC4=O)C5=O)CC3)cc2cc1NC(=O)c1cccc(C(F)(F)F)n1 (stereo not drawn) [Control group 1, N-(2-(1-(2-(2-((2-(2,6-dioxopiperidin-3-yl)-1,3-dioxoisoindolin-5-yl)oxy)ethoxy)ethyl)piperidin-4-yl)-6-methoxy-2H-indazol-5-yl)-6-(trifluoromethyl) pyridinecarboxamide, reference compound]
